Where a SMILES comes first, the peptide text is derived from it. Bridges are numbered along the chain shown (N, C = ends). [ ]: non-standard residue; d: D form. The star is where a group is joined. Threoninol(2S,3R) = C[C@@H](O)[C@H](CO)N*
Key:
[1] = human, serum, 4383 h
[2] = human, serum
[3] = human
[4] = Highest frequency of acute liver toxicity observed during clinical trials, expressed as a percentage. [column '% AIGUE' in source]; details: human
[5] = Times to onset, minimal and maximal, observed in the indexed observations. [column 'DELAI' in source]; details: human
[6] = human; remark: listed apart in the source
[7] = human; remark: listed apart in the source
[8] = Proposed mechanism(s) of liver damage. [column 'MEC' in source]; details: human
[9] = Presence of at least one case with successful reintroduction. [column 'REINT' in source]; details: human
[10] = human; remark: listed apart in the source
[11] = human; remark: listed apart in the source
[12] = human; remark: listed apart in the source
[13] = Highest frequency of moderate liver toxicity observed during clinical trials, expressed as a percentage. [column '% BIOL' in source]; details: human
[14] = Comments (NB not yet translated). [column 'COMMENTAIRES' in source]; details: human
[15] = human, serum; remark: listed apart in the source
[16] = human; remark: listed apart in the source
[17] = human; remark: listed apart in the source
[18] = human; remark: listed apart in the source
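Throughout, for Hepatotoxicity (association with vascular disease): count of indexed literature references reporting vascular liver injury in humans, e.g. peliosis hepatitis, hepatic veno-occlusive disease or Budd-Chiari syndrome.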
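Throughout, for Hepatotoxicity (benign tumour): value is a count of indexed literature references citing a benign tumour confirmed by histopathology.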
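Throughout, for Hepatotoxicity (choleostasis): human cholestatic liver injury, shown by histopathology or by peak ALT or AST elevation over alkaline phosphatase ratio below 2, value counts indexed literature reports.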
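Throughout, for Hepatotoxicity (chronic liver disease): chronic liver injury confirmed by histopathology or persistently raised serum aminotransferase activity beyond 6 months, value given as the count of indexed literature references.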
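Throughout, for Hepatotoxicity (cirrhosis): value is a count of indexed literature references reporting cirrhosis confirmed by histopathology.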
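Throughout, for Hepatotoxicity (cytolytic): human cytolytic liver injury, shown by histopathology or by a ratio above 5 of peak ALT or AST elevation to alkaline phosphatase elevation, value counts indexed references.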
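Throughout, for Hepatotoxicity (granulomatous hepatitis): value is a count of indexed literature references reporting granulomatous liver disease confirmed by histopathology.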
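Throughout, for Hepatotoxicity (malignant tumour): malignant tumour confirmed by histopathology, value gives the count of indexed literature references reporting it.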
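Throughout, for Hepatotoxicity (severe hepatitis): human clinical data: severe hepatitis, meaning potentially life-threatening liver failure or clinically observed cases, the value counts how many indexed literature references report it.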
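Throughout, for Hepatotoxicity (steatosis): steatosis confirmed by histopathology, value is the count of indexed references.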

Compound | Hepatotoxicity (chronic liver disease) [1] | Hepatotoxicity (moderate) [2] | Hepatotoxicity (malignant tumour) [3] | Hepatotoxicity (time to onset) [5] | Hepatotoxicity (steatosis) [7] | Hepatotoxicity (successful reintroduction) [9] | Hepatotoxicity (association with vascular disease) [10] | Hepatotoxicity (cirrhosis) [12] | Hepatotoxicity (comment) [14] | Hepatotoxicity (acute) [15] | Hepatotoxicity (benign tumour) [18] | Hepatotoxicity (acute) [4] | Hepatotoxicity (severe hepatitis) [6] | Hepatotoxicity (mechanism) [8] | Hepatotoxicity (cytolytic) [11] | Hepatotoxicity (moderate) [13] | Hepatotoxicity (granulomatous hepatitis) [16] | Hepatotoxicity (choleostasis) [17] | further results
CC1=C(/C=C/C(C)=C/C=C/C(C)=C/CO)C(C)(C)CCC1.O=C(O)Cc1cc(I)c(Oc2ccc(O)c(I)c2)c(I)c1 | 1 | 0 | 0 | 2 weeks - 9 years | 0 | yes | 0 | 1 | AC_ANTI-N | 7 | 0 |  |  |  |  |  |  |  | Hepatotoxicity (acute) ([4]; Liver): 0%; Hepatotoxicity (severe hepatitis) ([6]; Liver): 1; Hepatotoxicity (mechanism) ([8]; Liver): Allergic; Hepatotoxicity (cytolytic) ([11]; Liver): 7; Hepatotoxicity (moderate) ([13]; Liver): 0%; Hepatotoxicity (granulomatous hepatitis) ([16]; Liver): 0; Hepatotoxicity (choleostasis) ([17]; Liver): 1
C[C@@H](O)[C@H](CO)NC(=O)[C@@H]1CSSC[C@H](NC(=O)[C@H](N)Cc2ccccc2)C(=O)N[C@@H](Cc2ccccc2)C(=O)N[C@H](Cc2c[nH]c3ccccc23)C(=O)N[C@@H](CCCCN)C(=O)N[C@@H]([C@@H](C)O)C(=O)N1 (H-[dF]CF[dW]KTC-{Threoninol(2S,3R)}; disulfide 2-7) | 0 | 8 | 0 | 1 day - 14 months | 0 | yes | 0 | 0 | BOUE_BILIAIRE LITHIASE | 3 | 0 | 0% | 1 | Dose-dependant | 3 | 17.6% | 0 | 1 | 
CC(=O)N[C@@H](CS)C(=O)O [ACETYLCYSTEINE] | 0 | 0 | 0 | 4 days | 1 | yes | 0 | 0 | PERICHOLANGITE | 1 | 0 | 0% | 0 | Dose-dependant | 1 | 0% | 0 | 0 | 
COc1cc(C)c(/C=C/C(C)=C/C=C/C(C)=C/C(=O)O)c(C)c1C [ACITRETIN] | 2 | 16 | 0 | 1.5 hours - 5 months | 0 | yes | 0 | 1 | CHOLANGIOLITE CHOLESTASE_PROLONGEE AGGRAVATION_HVA | 12 | 0 | 10% | 0 | Dose-dependant | 5 | 30% | 0 | 1 | 
CC[C@H]1[C@@H]2C[C@H]3[C@@H]4N(C)c5ccccc5[C@]45C[C@@H]([C@@H]2[C@H]5O)N3[C@@H]1O [AJMALINE] | 1 | 2 | 0 | 1 day - 4 years | 0 | yes | 0 | 1 | CHOLESTASE_PROLONGEE RC/AMIODARONE | 29 | 0 | 0.1% | 0 | Allergic | 6 | 0% | 0 | 28 | 
Oc1ncnc2[nH]ncc12 [ALLOPURINOL] | 0 | 14 | 0 | 6 days - 5 years | 4 | yes | 0 | 0 | CHOLANGITE RC/METHYLDOPA REACTIVATION_HSV6 | 47 | 0 | 0.1% | 12 | Allergic | 26 | 3.1% | 13 | 12 | 
O=C(O)CCCCCCNC1c2ccccc2CCc2ccccc21 [AMINEPTINE] | 0 | 6 | 0 | 1 day - 10 months | 5 | yes | 0 | 1 | RC/CLOMIPRAMINE | 20 | 0 | 0% | 0 | Allergic, Reactive metabolite | 17 | 0.6% | 0 | 18 | 
CC1(C)S[C@@H]2[C@H](NC(=O)[C@H](N)c3ccccc3)C(=O)N2[C@H]1C(=O)O [AMPICILLIN] | 0 | 7 | 0 | 2 days - 2 weeks | 0 | yes | 0 | 0 | #CBP CHOLECYSTITE_ACALCULEUSE | 9 | 0 | 0% | 1 | Allergic | 3 | 20% | 0 | 4 | 
CCc1oc2ccccc2c1C(=O)c1ccc(O)cc1 [BENZARONE] | 3 | 0 | 0 | 2 weeks - 2 years | 0 | yes | 0 | 1 | AC_ANTI-ML/-N | 5 | 0 | 0% | 2 | Allergic | 3 | 0% | 0 | 0 | 

Source: ChEMBL document CHEMBL3137667, “[Drug-induced liver injury; fourteenth updated edition of the bibliographic database of liver injuries and related drugs]” (Gastroenterol Clin Biol, 2004)
